Measured values published in PubChem BioAssay (NCI).
“And” between values parts separate entries of the source, which are not always exact repeats. Equal entries are not always repeated.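 1) Cells in 96-well plates. 2) Compound, 48 h, 5 concentrations. 3) Linear interpolation between surrounding doses. 4) Unreached endpoint = highest concentration. The concentration for 50% growth inhibition is given as GI50. At the TGI there is no net growth.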

How the values were obtained:
Assay in all cases: growth of human tumour cells (NCI), 48 h
[1] = test system: RXF 393 renal
[2] = test system: OVCAR-4 ovarian
[3] = test system: ACHN renal
[4] = test system: M14 melanoma
[5] = test system: SK-MEL-5 melanoma
[6] = test system: SR leukemia
[7] = test system: SN12C renal
[8] = test system: OVCAR-5 ovarian
[9] = test system: HS 578T breast
[10] = test system: EKVX NSCLC

Compound | TGI [1] | TGI [2] | TGI [3] | TGI [4] | TGI [5] | TGI [6] [µM] | TGI [7] | GI50 [1] [µM] | GI50 [2] [µM] | GI50 [3] [µM] | GI50 [4] [µM] | GI50 [5] [µM] | GI50 [8] [µM] | TGI [8] [µM] | GI50 [6] [µM] | GI50 [9] | TGI [9] [µM] | GI50 [7] [µM] | GI50 [10] [µM] | TGI [10] [µM]
O=C1C2C3CC4C5C3C1C5C1(SCCS1)C42 (stereo unspecified) | > 100 µM | > 100 µM | > 100 µM | > 100 µM | > 100 µM | > 100 | > 100 µM |  |  |  |  |  |  |  |  |  |  |  |  | 
O=C1C=C(Nc2ccccc2)c2ccccc2C1=O | 8.77 µM | 3.53 µM | 7.88 µM | 3.65 µM | 3.12 µM | 12.4 | 3.11 µM | 2.53 | 1.68 | 2.56 | 1.96 | 1.7 | 1.85 | 3.33 | 3.22 | 2.57 µM | 6.32 | 1.62 |  | 
CCOc1ccc(N(C)c2ccc(/C=C/C3=[N+](C)c4ccccc4C3(C)C)cc2)cc1 | 1.95 µM | 2.18 µM | 1.11 µM | 1.73 µM | 0.784 µM | 0.633 | 1.52 µM | 0.471 | 0.399 | 0.306 | 0.366 | 0.192 | 1.28 | 2.92 | 0.0499 | 0.314 µM | 2 | 0.309 |  | 
CN(C)CCC(N)(P(=O)([O-])[O-])P(=O)([O-])[O-].N.N.[Pt+2] | > 100 µM | > 100 µM | > 100 µM | > 100 µM | > 100 µM | > 100 | > 100 µM | > 100 | > 100 | > 100 | > 100 | > 100 | > 100 | > 100 | > 100 |  |  | > 100 | > 100 | > 100
CC(=O)OC(C)(C)C1CC[C@]2(C)/C=C/C(C)C[C@@H](O)/C=C(\C)CC(O)C12 (stereo partly specified) | > 100 µM | > 100 µM | > 100 µM | > 100 µM | > 100 µM | > 100 | > 100 µM |  |  |  |  |  |  | > 100 |  |  |  |  |  | > 100
O=C1NC(=O)C(c2c[nH]c3ccccc23)=C1c1c[nH]c2ccccc12 | 24.3 µM | > 25 µM | > 25 µM | > 25 µM | 20.2 µM | > 25 | > 25 µM | 4.57 | 10.9 | 9.25 | 10.9 | 5.96 | > 25 | > 25 | 6.87 | 5.56 µM | > 25 | 16.3 |  | 
C/C(CN1C(=O)c2ccccc2C1=O)=N\NS(=O)(=O)c1ccc2ccccc2c1 |  | > 100 µM | > 100 µM | > 100 µM | > 100 µM | > 100 | > 100 µM |  |  |  |  |  |  | > 100 |  |  |  |  |  | > 100
COc1ccc(-c2csc3c2-n2cccc2C3=O)cc1 |  | > 100 µM | > 90.9 µM |  |  |  | > 100 µM |  | 2.58 |  |  | 0.0236 | 0.0946 | > 100 | 0.00314 | 0.211 µM and 0.0224 µM | 0.095 | 0.0681 | 0.597 | > 81.4
CC[C@@]1(OP(=O)(O)O)C(=O)OCc2c1cc1n(c2=O)Cc2cc3ccccc3nc2-1 | 3.52 µM and 0.81 µM | 6.44 µM and 4.85 µM | 0.853 µM and 0.26 µM | 1.87 µM and 5.28 µM | 0.458 µM and 0.46 µM | 0.0566 | 6.08 µM and 0.619 µM | 0.144 |  | 0.0243 | 0.173 | 0.126 | 0.553 |  |  |  |  | 0.024 | 2.13 | > 100
C=CCc1cccc(C=O)c1O | > 100 µM | > 100 µM | > 100 µM | > 100 µM | > 100 µM | > 100 | > 100 µM | 94 | 21.7 | > 100 | 39.2 | 38.5 | > 100 | > 100 | 22 | > 100 µM | > 100 | 20.8 |  | 
NC1=C(O)c2cccc3cccc(c23)C1=O | > 100 µM | > 100 µM | > 100 µM | > 100 µM | > 100 µM |  | > 100 µM |  |  |  |  |  |  | > 100 |  |  |  |  |  | > 100
Cc1cc(N(CCC#N)CCC#N)ccc1/C=C(\NC(=O)/C=C/c1ccccc1)C(=O)N=[N+]=[N-] | 98.5 µM |  | > 100 µM | > 100 µM | > 100 µM |  | > 100 µM |  |  |  |  |  |  | > 100 |  |  |  |  |  | > 100
N#CC(C(=O)CCCC(=O)Nc1ccccc1[N+](=O)[O-])c1c(Cl)cccc1Cl (stereo unspecified) | > 100 µM | > 100 µM | > 100 µM | > 100 µM | > 100 µM | > 100 | > 100 µM |  |  |  |  |  |  | > 100 |  |  |  |  |  | > 100
NC(N)NCCCc1cn2c(n1)C1CCCN1C(=O)C2Cc1ccccc1 (stereo unspecified) | > 100 µM | > 100 µM | > 100 µM | > 100 µM | > 100 µM |  | > 100 µM |  |  |  |  |  |  | > 100 |  |  |  |  |  | > 100
O=C(O)/C=C/c1ccc(O)c(O)c1 | > 100 µM | > 100 µM | > 100 µM | > 100 µM | > 100 µM |  | > 100 µM |  |  |  |  |  |  | > 100 |  |  |  |  |  | > 100
O=c1nc2n(-c3cccc(Cl)c3)c3ccc([N+](=O)[O-])cc3cc-2c(=O)[nH]1 | > 25 µM | > 25 µM | 16 µM | 16.8 µM | 12.8 µM |  | 10.6 µM | 10.1 | > 25 | 5.32 | 6.55 | 5.36 | 11.7 | > 25 |  |  |  | 4.55 | 11.9 | > 25
CN1CCN(Cc2ccc(NC(=O)c3cncc(C#Cc4cnc(N)c5ncccc45)c3)cc2C(F)(F)F)CC1 | 1.09 µM | 1.29 µM | 1.12 µM | 1.14 µM | 1.59 µM |  | 1.5 µM | 0.26 | 0.1 | 0.177 | 0.0698 | 0.432 | 0.372 | 1.78 |  | 0.213 µM | 1.68 | 0.307 | 0.589 | 15.5
